From ChEMBL document CHEMBL3046329, “Sensitivity to silthiofam, tebuconazole and difenoconazole of Gaeumannomyces graminis var. tritici isolates from China” (Pest Manag Sci, 2012)
Values after ≈ are worked out from the molar mass of the structure shown.

What was measured:
Format in all cases: functional, organism-based
Gaeumannomyces tritici [1] = experiment: Antifungal activity against sithiofam-sensitive Gaeumannomyces graminis var. tritici isolate JS08 expressing C2 genetic cluster assessed as reduction in fungal colony diameter after 4 days; details: isolate JS08, 96 h
Gaeumannomyces tritici [2] = experiment: Antifungal activity against sithiofam-resistant Gaeumannomyces graminis var. tritici isolate JS06 expressing C1 genetic cluster assessed as reduction in fungal colony diameter after 4 days; details: isolate JS06, 96 h
Gaeumannomyces tritici [3] = experiment: Antifungal activity against sithiofam-resistant Gaeumannomyces graminis var. tritici isolate JS04 expressing C1 genetic cluster assessed as reduction in fungal colony diameter after 4 days; details: isolate JS04, 96 h
Gaeumannomyces tritici [4] = experiment: Antifungal activity against sithiofam-resistant Gaeumannomyces graminis var. tritici isolate JS09 expressing C1 genetic cluster assessed as reduction in fungal colony diameter after 4 days; details: isolate JS09, 96 h
Gaeumannomyces tritici [5] = experiment: Antifungal activity against sithiofam-sensitive Gaeumannomyces graminis var. tritici isolate HN21 expressing C2 genetic cluster assessed as reduction in fungal colony diameter after 4 days; details: isolate HN21, 96 h
Gaeumannomyces tritici [6] = experiment: Antifungal activity against sithiofam-resistant Gaeumannomyces graminis var. tritici isolate HN20 expressing C1 genetic cluster assessed as reduction in fungal colony diameter after 4 days; details: isolate HN20, 96 h
Gaeumannomyces tritici [7] = experiment: Antifungal activity against sithiofam-sensitive Gaeumannomyces graminis var. tritici isolate HN19 expressing C2 genetic cluster assessed as reduction in fungal colony diameter after 4 days; details: isolate HN19, 96 h
Gaeumannomyces tritici [8] = experiment: Antifungal activity against sithiofam-sensitive Gaeumannomyces graminis var. tritici isolate HN18 expressing C2 genetic cluster assessed as reduction in fungal colony diameter after 4 days; details: isolate HN18, 96 h
Gaeumannomyces tritici [9] = experiment: Antifungal activity against sithiofam-sensitive Gaeumannomyces graminis var. tritici isolate HN29 expressing C2 genetic cluster assessed as reduction in fungal colony diameter after 4 days; details: isolate HN29, 96 h
Gaeumannomyces tritici [10] = experiment: Antifungal activity against sithiofam-sensitive Gaeumannomyces graminis var. tritici isolate HN26 expressing C2 genetic cluster assessed as reduction in fungal colony diameter after 4 days; details: isolate HN26, 96 h
Gaeumannomyces tritici [11] = experiment: Antifungal activity against sithiofam-sensitive Gaeumannomyces graminis var. tritici isolate HN24 expressing C2 genetic cluster assessed as reduction in fungal colony diameter after 4 days; details: isolate HN24, 96 h
Gaeumannomyces tritici [12] = experiment: Antifungal activity against sithiofam-sensitive Gaeumannomyces graminis var. tritici isolate HN23 expressing C2 genetic cluster assessed as reduction in fungal colony diameter after 4 days; details: isolate HN23, 96 h
Gaeumannomyces tritici [13] = experiment: Antifungal activity against sithiofam-sensitive Gaeumannomyces graminis var. tritici isolate HN14 expressing C2 genetic cluster assessed as reduction in fungal colony diameter after 4 days; details: isolate HN14, 96 h
Gaeumannomyces tritici [14] = experiment: Antifungal activity against sithiofam-resistant Gaeumannomyces graminis var. tritici isolate HN13 expressing C1 genetic cluster assessed as reduction in fungal colony diameter after 4 days; details: isolate HN13, 96 h
Gaeumannomyces tritici [15] = experiment: Antifungal activity against sithiofam-resistant Gaeumannomyces graminis var. tritici isolate HN12 expressing C1 genetic cluster assessed as reduction in fungal colony diameter after 4 days; details: isolate HN12, HN12, 96 h
Gaeumannomyces tritici [16] = experiment: Antifungal activity against sithiofam-resistant Gaeumannomyces graminis var. tritici isolate HN08 expressing C1 genetic cluster assessed as reduction in fungal colony diameter after 4 days; details: isolate HN08, 96 h
Gaeumannomyces tritici [17] = experiment: Antifungal activity against sithiofam-resistant Gaeumannomyces graminis var. tritici isolate HN07 expressing C1 genetic cluster assessed as reduction in fungal colony diameter after 4 days; details: isolate HN07, 96 h
Gaeumannomyces tritici [18] = experiment: Antifungal activity against sithiofam-resistant Gaeumannomyces graminis var. tritici isolate HN06 expressing C1 genetic cluster assessed as reduction in fungal colony diameter after 4 days; details: isolate HN06, 96 h
Gaeumannomyces tritici [19] = experiment: Antifungal activity against sithiofam-resistant Gaeumannomyces graminis var. tritici isolate HN04 expressing C1 genetic cluster assessed as reduction in fungal colony diameter after 4 days; details: isolate HN04, 96 h
Gaeumannomyces tritici [20] = experiment: Antifungal activity against sithiofam-resistant Gaeumannomyces graminis var. tritici isolate HN01 expressing C1 genetic cluster assessed as reduction in fungal colony diameter after 4 days; details: isolate HN01, 96 h
Gaeumannomyces tritici [21] = experiment: Antifungal activity against sithiofam-sensitive Gaeumannomyces graminis var. tritici isolate AH09 expressing C2 genetic cluster assessed as reduction in fungal colony diameter after 4 days; details: isolate AH09, 96 h
Gaeumannomyces tritici [22] = experiment: Antifungal activity against sithiofam-resistant Gaeumannomyces graminis var. tritici isolate HN16 expressing C1 genetic cluster assessed as reduction in fungal colony diameter after 4 days; details: isolate HN16, 96 h
Gaeumannomyces tritici [23] = experiment: Antifungal activity against sithiofam-sensitive Gaeumannomyces graminis var. tritici isolate JS01 expressing C1 genetic cluster assessed as reduction in fungal colony diameter after 4 days; details: isolate JS01, 96 h
Gaeumannomyces tritici [24] = experiment: Antifungal activity against sithiofam-sensitive Gaeumannomyces graminis var. tritici isolate AH16 expressing C2 genetic cluster assessed as reduction in fungal colony diameter after 4 days; details: isolate AH16, 96 h
Gaeumannomyces tritici [25] = experiment: Antifungal activity against sithiofam-sensitive Gaeumannomyces graminis var. tritici isolate AH15 expressing C2 genetic cluster assessed as reduction in fungal colony diameter after 4 days; details: isolate AH15, 96 h
Gaeumannomyces tritici [26] = experiment: Antifungal activity against sithiofam-sensitive Gaeumannomyces graminis var. tritici isolate AH07 expressing C2 genetic cluster assessed as reduction in fungal colony diameter after 4 days; details: isolate AH07, 96 h
Gaeumannomyces tritici [27] = experiment: Antifungal activity against sithiofam-resistant Gaeumannomyces graminis var. tritici isolate AH06 expressing C1 genetic cluster assessed as reduction in fungal colony diameter after 4 days; details: isolate AH06, 96 h
Gaeumannomyces tritici [28] = experiment: Antifungal activity against sithiofam-sensitive Gaeumannomyces graminis var. tritici isolate AH01 expressing C2 genetic cluster assessed as reduction in fungal colony diameter after 4 days; details: isolate AH01, 96 h
Gaeumannomyces tritici [29] = experiment: Antifungal activity against sithiofam-sensitive Gaeumannomyces graminis var. tritici isolate SD03 expressing C2 genetic cluster assessed as reduction in fungal colony diameter after 4 days; details: isolate SD03, 96 h
Gaeumannomyces tritici [30] = experiment: Antifungal activity against sithiofam-sensitive Gaeumannomyces graminis var. tritici isolate SD02 expressing C2 genetic cluster assessed as reduction in fungal colony diameter after 4 days; details: isolate SD02, 96 h
Gaeumannomyces tritici [31] = experiment: Antifungal activity against sithiofam-resistant Gaeumannomyces graminis var. tritici isolate AH14 expressing C1 genetic cluster assessed as reduction in fungal colony diameter after 4 days; details: isolate AH14, 96 h
Gaeumannomyces tritici [32] = experiment: Antifungal activity against sithiofam-resistant Gaeumannomyces graminis var. tritici isolate AH13 expressing C1 genetic cluster assessed as reduction in fungal colony diameter after 4 days; details: isolate AH13, 96 h
Gaeumannomyces tritici [33] = experiment: Antifungal activity against sithiofam-sensitive Gaeumannomyces graminis var. tritici isolate AH12 expressing C2 genetic cluster assessed as reduction in fungal colony diameter after 4 days; details: isolate AH12, 96 h
Gaeumannomyces tritici [34] = experiment: Antifungal activity against sithiofam-sensitive Gaeumannomyces graminis var. tritici isolate AH11 expressing C2 genetic cluster assessed as reduction in fungal colony diameter after 4 days; details: isolate AH11, 96 h
Gaeumannomyces tritici [35] = experiment: Antifungal activity against sithiofam-resistant Gaeumannomyces graminis var. tritici isolate AH10 expressing C1 genetic cluster assessed as reduction in fungal colony diameter after 4 days; details: isolate AH10, 96 h
Gaeumannomyces tritici [36] = experiment: Antifungal activity against sithiofam-sensitive Gaeumannomyces graminis var. tritici isolate SD01 expressing C2 genetic cluster assessed as reduction in fungal colony diameter after 4 days; details: isolate SD01, 96 h
Gaeumannomyces tritici [37] = experiment: Antifungal activity against sithiofam-sensitive Gaeumannomyces graminis var. tritici isolate HN30 expressing C2 genetic cluster assessed as reduction in fungal colony diameter after 4 days; details: isolate HN30, 96 h

Compound	EC50 (Gaeumannomyces tritici [1]) [ng/mL]	EC50 (Gaeumannomyces tritici [2]) [ng/mL]	EC50 (Gaeumannomyces tritici [3]) [ng/mL]	EC50 (Gaeumannomyces tritici [4]) [ng/mL]	EC50 (Gaeumannomyces tritici [5]) [ng/mL]	EC50 (Gaeumannomyces tritici [6]) [ng/mL]	EC50 (Gaeumannomyces tritici [7]) [ng/mL]	EC50 (Gaeumannomyces tritici [8]) [ng/mL]	EC50 (Gaeumannomyces tritici [9]) [ng/mL]	EC50 (Gaeumannomyces tritici [10]) [ng/mL]	EC50 (Gaeumannomyces tritici [11]) [ng/mL]	EC50 (Gaeumannomyces tritici [12]) [ng/mL]	EC50 (Gaeumannomyces tritici [13]) [ng/mL]	EC50 (Gaeumannomyces tritici [14]) [ng/mL]	EC50 (Gaeumannomyces tritici [15]) [ng/mL]	EC50 (Gaeumannomyces tritici [16]) [ng/mL]	EC50 (Gaeumannomyces tritici [17]) [ng/mL]	EC50 (Gaeumannomyces tritici [18]) [ng/mL]	EC50 (Gaeumannomyces tritici [19]) [ng/mL]	EC50 (Gaeumannomyces tritici [20]) [ng/mL]	other results
C=CCNC(=O)c1c([Si](C)(C)C)sc(C)c1C [SILTHIOFAM]	0.2 (≈ 0.000748 µM)	111000 (≈ 417 µM)	30300 (≈ 113 µM)	34200 (≈ 128 µM)	0.5 (≈ 0.00187 µM)	24800 (≈ 92.7 µM)	0.1 (≈ 0.000374 µM)	0.5 (≈ 0.00187 µM)	0.2 (≈ 0.000748 µM)	1.8 (≈ 0.00673 µM)	0.3 (≈ 0.00112 µM)	0.9 (≈ 0.00336 µM)	0.9 (≈ 0.00336 µM)	51800 (≈ 194 µM)	53000 (≈ 198 µM)	62400 (≈ 233 µM)	29800 (≈ 112 µM)	29900 (≈ 112 µM)	31900 (≈ 119 µM)	82700 (≈ 309 µM)	EC50 (Gaeumannomyces tritici [21]): 0.3 ng/mL (≈ 0.00112 µM); EC50 (Gaeumannomyces tritici [22]): 28600 ng/mL (≈ 107 µM); EC50 (Gaeumannomyces tritici [23]): 0.2 ng/mL (≈ 0.000748 µM); EC50 (Gaeumannomyces tritici [24]): 0.3 ng/mL (≈ 0.00112 µM); EC50 (Gaeumannomyces tritici [25]): 0.5 ng/mL (≈ 0.00187 µM); EC50 (Gaeumannomyces tritici [26]): 0.6 ng/mL (≈ 0.00224 µM); EC50 (Gaeumannomyces tritici [27]): 29100 ng/mL (≈ 109 µM); EC50 (Gaeumannomyces tritici [28]): 1.1 ng/mL (≈ 0.00411 µM); EC50 (Gaeumannomyces tritici [29]): 0.9 ng/mL (≈ 0.00336 µM); EC50 (Gaeumannomyces tritici [30]): 3.6 ng/mL (≈ 0.0135 µM); EC50 (Gaeumannomyces tritici [31]): 39900 ng/mL (≈ 149 µM); EC50 (Gaeumannomyces tritici [32]): 70200 ng/mL (≈ 263 µM); EC50 (Gaeumannomyces tritici [33]): 0.6 ng/mL (≈ 0.00224 µM); EC50 (Gaeumannomyces tritici [34]): 0.4 ng/mL (≈ 0.0015 µM); EC50 (Gaeumannomyces tritici [35]): 57600 ng/mL (≈ 215 µM); EC50 (Gaeumannomyces tritici [36]): 0.8 ng/mL (≈ 0.00299 µM); EC50 (Gaeumannomyces tritici [37]): 1.4 ng/mL (≈ 0.00523 µM)
CC(C)(C)C(O)(CCc1ccc(Cl)cc1)Cn1cncn1 (centres undefined) [TEBUCONAZOLE]	51 (≈ 0.166 µM)	85 (≈ 0.276 µM)	201 (≈ 0.652 µM)	29.8 (≈ 0.0968 µM)	60.9 (≈ 0.198 µM)	104 (≈ 0.338 µM)	47.8 (≈ 0.155 µM)	72.7 (≈ 0.236 µM)	76 (≈ 0.247 µM)	72.2 (≈ 0.235 µM)	47.2 (≈ 0.153 µM)	78 (≈ 0.253 µM)	47.9 (≈ 0.156 µM)	68.9 (≈ 0.224 µM)	76 (≈ 0.247 µM)	57 (≈ 0.185 µM)	51.3 (≈ 0.167 µM)	53.3 (≈ 0.173 µM)	56 (≈ 0.182 µM)	19.8 (≈ 0.0643 µM)	EC50 (Gaeumannomyces tritici [21]): 95.2 ng/mL (≈ 0.309 µM); EC50 (Gaeumannomyces tritici [22]): 59.9 ng/mL (≈ 0.195 µM); EC50 (Gaeumannomyces tritici [23]): 32.5 ng/mL (≈ 0.106 µM); EC50 (Gaeumannomyces tritici [24]): 96.5 ng/mL (≈ 0.313 µM); EC50 (Gaeumannomyces tritici [25]): 26.3 ng/mL (≈ 0.0854 µM); EC50 (Gaeumannomyces tritici [26]): 64.7 ng/mL (≈ 0.21 µM); EC50 (Gaeumannomyces tritici [27]): 28.3 ng/mL (≈ 0.0919 µM); EC50 (Gaeumannomyces tritici [28]): 25.4 ng/mL (≈ 0.0825 µM); EC50 (Gaeumannomyces tritici [29]): 98.3 ng/mL (≈ 0.319 µM); EC50 (Gaeumannomyces tritici [30]): 57.5 ng/mL (≈ 0.187 µM); EC50 (Gaeumannomyces tritici [31]): 26.5 ng/mL (≈ 0.0861 µM); EC50 (Gaeumannomyces tritici [32]): 302 ng/mL (≈ 0.981 µM); EC50 (Gaeumannomyces tritici [33]): 41.6 ng/mL (≈ 0.135 µM); EC50 (Gaeumannomyces tritici [34]): 39.5 ng/mL (≈ 0.128 µM); EC50 (Gaeumannomyces tritici [35]): 112 ng/mL (≈ 0.363 µM); EC50 (Gaeumannomyces tritici [36]): 176 ng/mL (≈ 0.573 µM); EC50 (Gaeumannomyces tritici [37]): 123 ng/mL (≈ 0.401 µM)
